From patent publication US20010047099A1, “4-aminopicolinates and their use as herbicides” (priority 2000, published 2001)

How the values were obtained:
[1] = system: wild buckwheat (Polygonum convolvulus); assay: Postemergence herbicidal activity; format: in vivo; conditions: Fallopia convolvulus, post-emergence, 336 h, Table 1, visual, after 2 weeks, read-out: Post-emergent % Control POLCO; for pest or weed control at 250 ppm: rate 250 ppm; for pest or weed control at 125 ppm: rate 125 ppm
In short: (§1)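 Plants are raised from seed under greenhouse conditions until the first or second true leaf appears. They are then sprayed with test solutions at known concentrations, where 1 ppm corresponds to roughly 1 g/Ha. Two weeks later, injury is rated by eye from 0 to 100%.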

[2] = system: cocklebur (Xanthium strumarium); assay: Postemergence herbicidal activity; format: in vivo; conditions: for pest or weed control at 250 ppm / pest or weed control at 125 ppm: Xanthium strumarium, post-emergence, 336 h, Table 1, visual, after 2 weeks, read-out: Post-emergent % Control XANST; for pest or weed control at 125 ppm: rate 125 ppm
In short: as §1

[3] = system: chickweed (Stellaria media); assay: Postemergence herbicidal activity; format: in vivo; conditions: Stellaria media, post-emergence, 336 h, Table 1, visual, after 2 weeks, read-out: Post-emergent % Control STEME; for pest or weed control at 250 ppm: rate 250 ppm; for pest or weed control at 125 ppm: rate 125 ppm
In short: as §1

[4] = system: field bindweed (Convolvulus arvensis); assay: Range & Pasture Crop Testing (postemergence track sprayer); format: in vivo; conditions: Table 10; clover pasture; postemergence
Experimental: (§2) By applying the well-accepted probit analysis as described by J. Berkson in Journal of the […], 48, 565 (1953) and by D. Finney in “Probit Analysis” Cambridge University Press (1952), the above data can be used to calculate GR50 and GR80 values, which are defined as growth reduction factors that correspond to the effective dose of herbicide required to kill or control 50 percent or 80 percent, respectively, of a target plant.
(§3) Rates are calculated based upon 5 doses being applied. The high rate (X), followed by serial dilutions of 1/2×, 1/4×, 1/8× and 1/16×. Compound requirements are based upon the 187 L/ha carrier volume, specifications of the delivery system (Mandel track sprayer) and generating 24 mL of technical spray material to allow for the dilutions and overage in the sprayer. [formula]
(§4) All technical materials were formulated in 97:3 (acetone:DMSO) with 0.25% X-77. The total volume of solvent is maintained at less than 7%. An overhead Mandel track sprayer calibrated to deliver 187 L/ha was used for all treatment applications (postemergence). Picloram was included as a comparison treatment.
(§5) Solutions were applied with a mechanized track-sprayer at the following settings:
(§6) Spray height: 17 inches above top of plants
(§7) This provides an application volume of 187 L/ha.
(§8) Percent weed control (burn down) was evaluated 3 weeks after treatment. Visual control on a 0-100 linear scale was used, with 0 representing no control and 100 representing total control. Burn down ratings were taken for annual and perennial weed species.

[5] = system: Canada thistle (Cirsium arvense); assay: as above; format: in vivo
Experimental: as §2, §3, §4, §5, §6, §7, §8

[6] = system: White Clover (Trifolium repens); assay: as above; format: in vivo; conditions: Table 10
Experimental: as §2, §3, §4, §5, §6, §7, §8

[7] = system: pigweed (Amaranthus retroflexus); assay: Preemergence herbicidal activity; format: in vivo; conditions: Amaranthus retroflexus, 504 h, Table 6 (headed Post-emergent; text: preemergence), after 3 weeks, read-out: % Control AMARE; for pest or weed control at 560 ppm: rate 560 ppm
In short: (§9)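 Visual injury score, 0-100 percent (0 = no injury, 100 = complete kill or no germination), taken 3 weeks after treatment relative to untreated plants. Test solutions in water/Tween 155 with acetone/DMSO carrier were sprayed onto the soil of freshly seeded pots. Greenhouse, 15 hr light.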

[8] = system: velvetleaf (Abutilon theophrasti); assay: Preemergence herbicidal activity; format: in vivo; conditions: Abutilon theophrasti, 504 h, Table 6 (headed Post-emergent; text: preemergence), after 3 weeks, read-out: % Control ABUTH; for pest or weed control at 560 ppm: rate 560 ppm
In short: as §9

[9] = system: morningglory (Ipomoea hederacea); assay: Preemergence herbicidal activity; format: in vivo; conditions: Ipomoea, 504 h, Table 6 (headed Post-emergent; text: preemergence), after 3 weeks, read-out: % Control IPOHE; for pest or weed control at 560 ppm: rate 560 ppm
In short: as §9

[10] = system: corn (Zea mays); assay: Postemergence herbicidal activity, selectivity to corn; format: in vivo; conditions: Table 4; crop (corn); rate 250 ppm
Experimental: (§10) Seeds of the desired test plant species were planted in Grace-Sierra MetroMix® 306 planting mixture, which typically has a pH of 6.0 to 6.8 and an organic matter content of about 30 percent, in plastic pots with a surface area of 64 square centimeters. When required to ensure good germination and healthy plants, a fungicide treatment and/or other chemical or physical treatment was applied. The plants were grown for 7-21 days in a greenhouse with an approximate 15 hr photoperiod which was maintained at about 23-29° C. during the day and 22-28° C. during the night. Nutrients and water were added on a regular basis and supplemental lighting was provided with overhead metal halide 1000-Watt lamps as necessary. The plants were employed for testing when they reached the first or second true leaf stage.
(§11) A weighed amount, determined by the highest rate to be tested, of each test compound was placed in a 20 mL glass vial and was dissolved in 4 mL of a 97:3 v/v (volume/volume) mixture of acetone and dimethyl sulfoxide (DMSO) to obtain concentrated stock solutions. […] The concentrated stock solutions obtained were diluted with an aqueous mixture containing acetone, water, isopropyl alcohol, DMSO, Atplus 411F crop oil concentrate, and Triton X-155 surfactant in a 48.5:39:10:1.5:1.0:0.02 v/v ratio to obtain spray solutions of known concentration. The solutions containing the highest concentration to be tested were prepared by diluting 2 mL aliquots of the stock solution with 13 mL of the mixture and lower concentrations were prepared by serial dilution of the stock solution. […]
(§12) The treated plants and control plants were placed in a greenhouse as described above and watered by sub-irrigation to prevent wash-off of the test compounds. After 2 weeks the condition of the test plants as compared with that of the untreated plants was determined visually and scored on a scale of 0 to 100 percent where 0 corresponds to no injury and 100 corresponds to complete kill.

[11] = system: pigweed (Amaranthus retroflexus); assay: Postemergence herbicidal activity; format: in vivo; conditions: Table 4; rate 250 ppm
In short: as §1

[12] = system: velvetleaf (Abutillon theophrasti); assay: Postemergence herbicidal activity; format: in vivo; conditions: Table 4; rate 250 ppm
In short: as §1

[13] = system: crested wheatgrass (Agropyron cristatum) (grass crop); assay: Range & Pasture Crop Testing (postemergence track sprayer); format: in vivo; conditions: Table 9, rate 70 g/Ha, 3 weeks after treatment
Experimental: as §3, §4, §5, §6, §7, §8

[14] = system: broadleaf dock (Rumex obtusifolia); assay: as above; format: in vivo; conditions: Table 9; rate 70 g/Ha; 3 weeks after treatment
Experimental: as §3, §4, §5, §6, §7, §8

[15] = system: barnyardgrass (Echinochloa crus-galli); assay: Postemergence herbicidal activity; format: in vivo; conditions: Table 3; weeds in rice; rate 250 ppm
In short: as §1

[16] = system: yellow nutsedge (Cyperus esculentus); assay: Postemergence herbicidal activity; format: in vivo; conditions: Table 3; weeds in rice; rate 250 ppm
In short: as §1

[17] = system: rice (Oryza sativa); assay: Postemergence herbicidal activity, selectivity to rice; format: in vivo; conditions: Table 3; crop (rice); rate 250 ppm
Experimental: as §10, §11, §12

Row | melting point [°C] | Compound | pest or weed control at 250 ppm [1] [%] | pest or weed control at 250 ppm ([2]; rate 250 ppm) [%] | pest or weed control at 250 ppm [3] [%] | pest or weed control at 560 ppm [7] [%] | pest or weed control at 560 ppm [8] [%] | pest or weed control at 560 ppm [9] [%] | pest or weed control at 125 ppm [1] [%] | pest or weed control at 125 ppm [2] [%] | pest or weed control at 125 ppm [3] [%] | also measured
1 | 65 to 66 | CCCCCCOC(=O)c1nc(Cl)cc(N)c1Cl [Compound 9, n-hexyl 4-amino-3,6-dichloropyridine-2-carboxylate] | 100 | 100 | 100 |  |  |  |  |  |  | GR80 CONAR [4]: 66 g/ha; GR80 CIRAR ([5]; Table 10, clover pasture, postemergence): 20.7 g/ha; GR20 TRFRE [6]: 20.7 g/ha; pest or weed control at 280 ppm ([7]; rate 280 ppm): 98%; pest or weed control at 280 ppm ([8]; rate 280 ppm): 100%; pest or weed control at 280 ppm ([9]; rate 280 ppm): 100%
2 | 201 to 202 | Nc1c(Cl)c(C(=O)O)nc(Cl)c1Br [Compound 20, 4-Amino-3,6-dichloro-5-bromopyridine-2-carboxylic acid] | 50 | 85 | 90 | 100 | 100 | 100 |  |  |  | Post-emergent Evaluation - % control ZEAMX [10]: 10%; Post-emergent Evaluation - % control AMARE [11]: 90%; Post-emergent Evaluation - % control ABUTH [12]: 70%; Post-emergent Evaluation - % control XANST ([2]; Table 4, rate 250 ppm): 85%
3 | 170 to 172 | CNc1cc(Cl)nc(C(=O)O)c1Cl [Compound 26, 4-N-Methylamino-3,6-dichloropyridine-2-carboxylic acid] |  |  |  | 100 | 100 | 100 | 95 | 90 | 90 | Post-emergent Evaluation - % control AGRCR [13]: 10%; Post-emergent Evaluation - % control RUMOB [14]: 100%; Post-emergent Evaluation - % control CIRAR ([5]; Table 9, rate 70 g/Ha, 3 weeks after treatment): 90%
4 | 136 to 137 | CCNc1cc(Cl)nc(C(=O)O)c1Cl [Compound 27, 4-N-ethylamino-3,6-dichloropyridine-2-carboxylic acid] |  |  |  | 100 | 100 | 100 | 90 | 85 | 100 | post emergent evaluation - % control ECHCG [15]: 70%; post emergent evaluation - % control CYPES [16]: 50%; post emergent evaluation - % control ORYZA [17]: 40%
